The record followed here is article PMC9740829, “Salvianolic Acid B Strikes Back: New Evidence in the Modulation of Expression and Activity of Matrix Metalloproteinase 9 in MDA-MB-231 Human Breast Cancer Cells” (Molecules, 2022).

This experiment addresses T1, matrix metalloproteinase 9 (MMP-9) (Homo sapiens, UniProt P14780).
T1 construct: gene MMP9; recombinant catalytic domain of MMP-9 (CDMMP-9), 39 kDa, aa 107–457 + NT His Tag
The experiment in a line: fluorometric inhibition assay with self-quenched peptide substrate; double reciprocal and secondary plots. Type of experiment: biochemical. The text has this:
fluorometric inhibition assay with self-quenched peptide substrate; double reciprocal and secondary plots on matrix metalloproteinase 9 (MMP-9) | competitive inhibition of the activity performed by the MMP-9 catalytic domain (CDMMP-9) (Figure 3A), and allowed to define a Ki

T1 sequence (P14780 107-457): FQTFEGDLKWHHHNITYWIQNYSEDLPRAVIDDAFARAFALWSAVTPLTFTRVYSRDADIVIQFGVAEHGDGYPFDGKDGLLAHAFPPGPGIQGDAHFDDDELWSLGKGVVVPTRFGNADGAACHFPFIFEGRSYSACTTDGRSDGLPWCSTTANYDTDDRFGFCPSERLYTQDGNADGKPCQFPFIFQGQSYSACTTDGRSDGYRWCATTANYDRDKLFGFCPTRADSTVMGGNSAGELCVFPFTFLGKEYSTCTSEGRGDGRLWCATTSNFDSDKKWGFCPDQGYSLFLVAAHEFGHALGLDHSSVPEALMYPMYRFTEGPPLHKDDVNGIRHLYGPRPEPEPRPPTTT

Compound `O=C(/C=C/c1ccc(O)c2c1[C@H](C(=O)O[C@H](Cc1ccc(O)c(O)c1)C(=O)O)[C@@H](c1ccc(O)c(O)c1)O2)O[C@H](Cc1ccc(O)c(O)c1)C(=O)O` [SalB, Salvianolic acid B] returned a Ki of 57.4 ± 3.96 µM.

As usually defined, the Ki is the equilibrium dissociation constant of an inhibitor or competing ligand from its target. Lower therefore signals a stronger hold on the target.
